Entries after “also recorded” stand apart in the source; their conditions may differ. Where two headings read alike, the source gives them in different places.
Key:
sGCcat = target: T1, sGCcat (Homo sapiens, UniProt Q02108+Q02153); assay: SPR binding to catalytic domain of sGC; conditions: for sGCcat (SPR) binding norm. resp. (RU): Biacore T200, 25 °C; for binding to sGCcat (in words): discussion of Table 1
T1 construct: a smaller construct of the catalytic domain (sGCcat)
T1 sequence (Q02108 481-608 limits assumed): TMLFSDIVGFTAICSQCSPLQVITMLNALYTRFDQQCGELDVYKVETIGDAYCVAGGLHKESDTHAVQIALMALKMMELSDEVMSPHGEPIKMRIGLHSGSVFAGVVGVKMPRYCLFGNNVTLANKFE
T1 sequence (Q02153 421-554 limits assumed): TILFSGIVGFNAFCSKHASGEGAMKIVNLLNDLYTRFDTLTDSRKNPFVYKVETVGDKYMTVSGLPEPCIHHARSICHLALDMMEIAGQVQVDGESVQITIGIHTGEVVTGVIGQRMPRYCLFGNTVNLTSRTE
Procedure: We have previously described a surface plasmon resonance-based assay for the detection of binding of small molecules to full-length sGC and a smaller construct of the catalytic domain (sGCcat).[24] This assay was used to measure the binding of the compounds to sGCcat.[24] […] The position of the hydroxyl group can be changed whilst retaining binding strength and activity.
Surface plasmon resonance (SPR) experiments were performed with a Biacore T200 instrument at 25 °C. Data processing and analysis were performed using BIAevaluation software and Scrubber2. All sensorgrams were double referenced by subtracting the response in a reference flowcell and a blank sample. Materials and methods used were the same as previously published.[24]

purified bovine lung sGC = target: T2, purified bovine lung sGC (Bos taurus, UniProt P16068+P19687); assay: Soluble guanylate cyclase activity assay (cGMP radioimmunoassay); format: biochemical; conditions: for inhibition of sGC enzyme activity (in words): discussion of Table 1
T2 construct: screened at 100 μM against purified bovine lung sGC; purchased Enzo lifesciences ALX-202-039-C005; host or cells: bovine lung
T2 sequence (P19687 1-691): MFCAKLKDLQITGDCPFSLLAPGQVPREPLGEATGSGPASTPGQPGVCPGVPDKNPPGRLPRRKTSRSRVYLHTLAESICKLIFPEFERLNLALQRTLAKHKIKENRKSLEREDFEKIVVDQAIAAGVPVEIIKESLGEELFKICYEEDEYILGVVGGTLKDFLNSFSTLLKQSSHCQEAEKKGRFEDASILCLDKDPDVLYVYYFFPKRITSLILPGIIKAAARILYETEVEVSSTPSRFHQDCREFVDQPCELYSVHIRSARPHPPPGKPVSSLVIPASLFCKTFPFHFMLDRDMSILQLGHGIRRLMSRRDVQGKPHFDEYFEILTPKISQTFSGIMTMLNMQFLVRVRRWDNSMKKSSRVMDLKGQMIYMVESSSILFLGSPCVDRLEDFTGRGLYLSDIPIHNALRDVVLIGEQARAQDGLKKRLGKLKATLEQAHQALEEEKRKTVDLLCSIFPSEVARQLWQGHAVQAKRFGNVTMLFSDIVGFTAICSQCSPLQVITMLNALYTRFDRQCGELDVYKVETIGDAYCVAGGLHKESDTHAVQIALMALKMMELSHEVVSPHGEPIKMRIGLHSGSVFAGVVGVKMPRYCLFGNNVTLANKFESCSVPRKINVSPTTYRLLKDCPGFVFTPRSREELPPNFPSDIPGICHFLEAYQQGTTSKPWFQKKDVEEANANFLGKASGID
T2 sequence (P16068 1-619): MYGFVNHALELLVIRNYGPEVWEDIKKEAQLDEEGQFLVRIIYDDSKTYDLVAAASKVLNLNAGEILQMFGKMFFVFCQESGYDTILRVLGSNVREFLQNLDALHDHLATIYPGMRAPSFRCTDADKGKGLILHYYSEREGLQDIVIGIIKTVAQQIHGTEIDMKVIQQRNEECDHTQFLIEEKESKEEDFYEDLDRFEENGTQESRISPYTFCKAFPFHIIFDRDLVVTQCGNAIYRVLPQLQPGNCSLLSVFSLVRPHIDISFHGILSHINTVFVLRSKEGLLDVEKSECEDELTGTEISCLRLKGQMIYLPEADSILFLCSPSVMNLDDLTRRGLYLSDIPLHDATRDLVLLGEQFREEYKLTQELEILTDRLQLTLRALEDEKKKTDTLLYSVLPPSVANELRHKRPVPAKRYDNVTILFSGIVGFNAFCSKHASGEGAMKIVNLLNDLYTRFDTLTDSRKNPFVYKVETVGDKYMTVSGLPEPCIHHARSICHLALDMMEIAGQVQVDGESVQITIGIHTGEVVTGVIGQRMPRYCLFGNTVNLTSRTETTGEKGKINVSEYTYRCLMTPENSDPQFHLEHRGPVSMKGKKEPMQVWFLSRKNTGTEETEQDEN
Procedure: Virtual screening was performed by similarity searches using MACCS fingerprints at 85% and 75% Tanimoto of commercial libraries and the selected compounds were screened at 100 μM against purified bovine lung sGC using diethylamine NONOate (30 nM) as the NO donor. Enzyme activity was determined by measuring cGMP production using a standard cGMP [^3H] radioimmunoassay.[21,22]
[…] Compounds were added at 100 μM prior to adding the NO donor DEA/NO (30 nM) or clamped NO concentrations. cGMP generation was allowed to proceed for two minutes, after which aliquots were withdrawn and inactivated by boiling in 50 mM Tris, 4 mM EDTA buffer. cGMP formation was measured by a standard radioimmunoassay.

[1] = read-out: % inhibition of sGC activity at 100 μM compound
[2] = virtual screening hits, 100 μM compound, diethylamine NONOate 30 nM as NO donor, read-out: % inhibition of sGC activity at 100 μM compound
[3] = synthesised analogues, 100 μM, read-out: sGC activity% inhibition at 100 μM

Row | Molecule | sGCcat (SPR) binding norm. resp. (RU) (sGCcat) | inhibition of sGC enzyme activity (in words) (purified bovine lung sGC) | binding to sGCcat (in words) (sGCcat) | inhibition at 100 µM (purified bovine lung sGC; [1]) [%] | inhibition at 100 µM (purified bovine lung sGC; [2]) [%] | inhibition at 100 µM (purified bovine lung sGC; [3]) [%]
1 | CNC(=O)c1ccc2nc(Nc3ccc(O)cc3)c(Nc3ccc(O)cc3)nc2c1 [Compound 27, 2,3-Bis((4-hydroxyphenyl)amino)-N-methylquinoxaline-6-carboxamide] | 1.1 ± 0.3 | – | – | – | – | –
2 | Oc1ccc(Nc2nc3ccc(Cl)cc3nc2Nc2ccc(O)cc2)cc1 [Compound 25, 4,4′-((6-Chloroquinoxaline-2,3-diyl)bis(azanediyl))diphenol] | 9.7 ± 0.5 | do not inhibit the enzyme activity | bind to the receptor | – | – | –
3 | N#Cc1ccc2nc(Nc3ccc(O)cc3)c(Nc3ccc(O)cc3)nc2c1 [Compound 23, 2,3-Bis((4-hydroxyphenyl)amino)quinoxaline-6-carbonitrile] | 4.5 ± 2 | do not inhibit the enzyme activity | bind to the receptor | – | – | –
4 | COc1ccc(Nc2nc3ccc([N+](=O)[O-])cc3nc2Nc2ccc(OC)cc2)cc1 [Compound 15, N2,N3-Bis(4-methoxyphenyl)-6-nitroquinoxaline-2,3-diamine] | 1.0 ± 0.3 | biochemically inactive | reduced its binding strength | – | – | –
5 | O=[N+]([O-])c1ccc2nc(Nc3ccc(F)cc3)c(Nc3ccc(F)cc3)nc2c1 [Compound 19, N2,N3-Bis(4-fluorophenyl)-6-nitroquinoxaline-2,3-diamine] | 1.9 ± 1.8 | biochemically inactive | reduced its binding strength | – | – | –
6 | CC(=O)Nc1cccc(Nc2nc3ccc([N+](=O)[O-])cc3nc2Nc2cccc(NC(C)=O)c2)c1 [Compound 18, N,N′-(((6-Nitroquinoxaline-2,3-diyl)bis(azanediyl))bis(3,1-phenylene))diacetamide] | 3.0 ± 1.0 | biochemically inactive | reduced its binding strength | – | – | –
7 | 6,7-Bis((3-hydroxyphenyl)amino)-N-methyl-2-naphthamide [Compound 28] | 9.6 ± 0.3 | – | higher binding | – | – | –
8 | CC(=O)Nc1ccc(Nc2nc3ccc([N+](=O)[O-])cc3nc2Nc2ccc(NC(C)=O)cc2)cc1 [Compound 17, N,N′-(((6-Nitroquinoxaline-2,3-diyl)bis(azanediyl))bis(4,1-phenylene))diacetamide] | 0.8 ± 0.3 | biochemically inactive | reduced its binding strength | – | – | –
9 | CC(=O)c1ccc(Nc2nc3cc([N+](=O)[O-])c([N+](=O)[O-])cc3nc2Nc2cccc(C(C)=O)c2)cc1 [Compound 9] | – | – | – | 73 | – | –
10 | O=[N+]([O-])c1ccccc1Nc1nc2nonc2nc1Nc1ccccc1[N+](=O)[O-] [Compound 8] | – | – | – | 90 | – | –
11 | N#Cc1cc(Nc2cccc(Cl)c2)c(Nc2cccc(Cl)c2)cc1C#N [Compound 6] | – | – | – | – | 51 | –
12 | Nc1ccc2nc(Nc3ccc(O)cc3)c(Nc3ccc(O)cc3)nc2c1 [Compound 29, 4,4′-((6-Aminoquinoxaline-2,3-diyl)bis(azanediyl))diphenol] | 9.9 ± 0.2 | do not inhibit the enzyme activity | higher binding; also recorded: bind to the receptor | – | – | –
13 | Fc1cccc(Nc2nc3nonc3nc2Nc2cccc(F)c2)c1 [Compound 7] | – | – | – | – | 90 | –
14 | Oc1ccc(Nc2nc3ccccc3nc2Nc2ccc(O)cc2)cc1 [Compound 20, 4,4′-(Quinoxaline-2,3-diylbis(azanediyl))diphenol] | 12.4 ± 0.1 | no significant inhibition | higher binding; also recorded: only a small decrease in binding | – | – | –
15 | Clc1cccc(Nc2ncnc3ccccc23)c1Cl [Compound 5] | – | – | – | – | 51 | –
16 | Oc1cccc(Nc2nc3ccc(C(F)(F)F)cc3nc2Nc2cccc(O)c2)c1 [Compound 22, 3,3′-((6-(Trifluoromethyl)quinoxaline-2,3-diyl)bis(azanediyl))diphenol] | 3.0 ± 0.5 | – | – | – | – | 21.1
17 | O=[N+]([O-])c1ccc2nc(Nc3ccccc3)c(Nc3ccccc3)nc2c1 [Compound 16, 6-Nitro-N2,N3-diphenylquinoxaline-2,3-diamine] | 2.6 ± 0.2 | – | – | – | – | –
18 | Oc1cccc(Nc2nc3ccc(Cl)cc3nc2Nc2cccc(O)c2)c1 [Compound 26, 3,3′-((6-Chloroquinoxaline-2,3-diyl)bis(azanediyl))diphenol] | 9.0 ± 0.4 | do not inhibit the enzyme activity | bind to the receptor | – | – | –
19 | O=[N+]([O-])c1ccc2nc(Nc3cccc(O)c3)c(Nc3cccc(O)c3)nc2c1 [Compound 14, 3,3′-((6-Nitroquinoxaline-2,3-diyl)bis(azanediyl))diphenol] | 11.6 ± 0.8 | – | higher binding | – | – | 41.4
20 | Oc1ccc(Nc2nc3ccc(C(F)(F)F)cc3nc2Nc2ccc(O)cc2)cc1 [Compound 21, 4,4′-((6-(Trifluoromethyl)quinoxaline-2,3-diyl)bis(azanediyl))diphenol] | 6.4 ± 0.5 | – | higher binding | – | – | 44.4
21 | N#Cc1ccc2nc(Nc3cccc(O)c3)c(Nc3cccc(O)c3)nc2c1 [Compound 24, 2,3-Bis((3-hydroxyphenyl)amino)quinoxaline-6-carbonitrile] | 10.5 ± 0.5 | do not inhibit the enzyme activity | bind to the receptor | – | – | –
